Earlier results in patent US20170001952A1, “FUMARATE COMPOUNDS, PHARMACEUTICAL COMPOSITIONS THEREOF, AND METHODS OF USE” (priority 2015, published 2017).

## COC(=O)/C=C/C(=O)OC [DMF, dimethylfumarate]
  aqueous solubility: poor aqueous solubility
